Laboratory results: patent US10973832B2, “Muscarinic M1 receptor agonists” (Heptares Therapeutics Limited, priority 2011, dated 2021)

Columns and labels:
Type in all cases: cell-based
[1] = target: T1, human muscarinic M3 receptor (Homo sapiens, UniProt P20309); assay: Phospho-ERK1/2 assay, muscarinic M3; conditions: for EC50: CHO cells expressing human M3, phospho-ERK1/2 Alphascreen, read-out: pEC50 M3 (converted); for Emax: CHO, read-out: % Emax cf. ACh (M3)
T1 construct: expressed in transfected cells
Description: (§1) Functional assays were performed using the Alphascreen Surefire phospho-ERK1/2 assay (Crouch & Osmond, Comb. Chem. High Throughput Screen, 2008). ERK1/2 phosphorylation is a downstream consequence of both Gq/11 and Gi/o protein coupled receptor activation, making it highly suitable for the assessment of M1, M3 (Gq/11 coupled) and M2, M4 receptors (Gi/o coupled), rather than using different assay formats for different receptor subtypes. CHO cells stably expressing the human muscarinic M1, M2, M3 or M4 receptor were plated (25K/well) onto 96-well tissue culture plates in MEM-alpha+10% dialysed FBS. Once adhered, cells were serum-starved overnight. Agonist stimulation was performed by the addition of 5 μL agonist to the cells for 5 min (37° C.). Media was removed and 50 μL of lysis buffer added. After 15 min, a 4 μL sample was transferred to 384-well plate and 7 μL of detection mixture added. Plates were incubated for 2 h with gentle agitation in the dark and then read on a PHERAstar plate reader.
(§2) pEC50 and Emax figures were calculated from the resulting data for each receptor subtype.

[2] = target: T2, human muscarinic M2 receptor (Homo sapiens, UniProt P08172); assay: Phospho-ERK1/2 assay, muscarinic M2; conditions: for EC50: CHO cells expressing human M2, phospho-ERK1/2 Alphascreen, read-out: pEC50 M2 (converted); for Emax: CHO, read-out: % Emax cf. ACh (M2)
T2 sequence (P08172 1-466): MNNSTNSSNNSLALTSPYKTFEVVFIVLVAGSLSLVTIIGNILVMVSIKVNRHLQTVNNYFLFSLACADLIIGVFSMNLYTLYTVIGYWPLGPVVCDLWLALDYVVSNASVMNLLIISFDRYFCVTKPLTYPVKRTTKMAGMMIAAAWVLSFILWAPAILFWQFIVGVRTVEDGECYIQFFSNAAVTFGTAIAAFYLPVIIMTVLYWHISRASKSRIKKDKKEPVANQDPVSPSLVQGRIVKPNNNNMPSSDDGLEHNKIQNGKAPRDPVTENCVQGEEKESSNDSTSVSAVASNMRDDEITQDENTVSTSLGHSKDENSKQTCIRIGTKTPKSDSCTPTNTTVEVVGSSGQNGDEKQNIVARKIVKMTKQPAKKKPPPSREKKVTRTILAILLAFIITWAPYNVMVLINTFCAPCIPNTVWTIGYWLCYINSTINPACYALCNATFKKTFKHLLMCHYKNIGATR
Description: as §1, §2

[3] = target: T3, human muscarinic M4 receptor (Homo sapiens, UniProt P08173); assay: Phospho-ERK1/2 assay, muscarinic M4; conditions: for EC50: CHO cells expressing human M4, phospho-ERK1/2 Alphascreen, read-out: pEC50 M4 (converted); for Emax: CHO, read-out: % Emax cf. ACh (M4)
T3 construct: expressed in transfected cells
T3 sequence (P08173 1-479): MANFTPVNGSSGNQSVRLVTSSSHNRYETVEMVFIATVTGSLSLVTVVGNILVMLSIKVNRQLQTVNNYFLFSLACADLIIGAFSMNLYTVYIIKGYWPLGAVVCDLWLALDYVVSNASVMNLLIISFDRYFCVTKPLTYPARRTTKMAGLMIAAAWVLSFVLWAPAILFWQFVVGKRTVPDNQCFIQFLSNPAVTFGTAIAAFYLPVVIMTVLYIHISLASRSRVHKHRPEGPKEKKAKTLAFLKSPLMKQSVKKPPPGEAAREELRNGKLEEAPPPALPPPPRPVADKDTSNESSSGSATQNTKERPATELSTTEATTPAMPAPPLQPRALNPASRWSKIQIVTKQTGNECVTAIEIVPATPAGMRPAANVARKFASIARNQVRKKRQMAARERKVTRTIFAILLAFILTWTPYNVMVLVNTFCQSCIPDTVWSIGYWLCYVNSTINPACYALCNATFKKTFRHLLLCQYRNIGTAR
Description: as §1, §2

[4] = target: T4, human muscarinic M1 receptor (Homo sapiens, UniProt P11229); assay: Phospho-ERK1/2 assay, muscarinic M1; conditions: for EC50: CHO cells expressing human M1, phospho-ERK1/2 Alphascreen, read-out: pEC50 M1 (converted); for Emax: CHO, read-out: % Emax cf. ACh (M1)
T4 sequence (P11229 1-460): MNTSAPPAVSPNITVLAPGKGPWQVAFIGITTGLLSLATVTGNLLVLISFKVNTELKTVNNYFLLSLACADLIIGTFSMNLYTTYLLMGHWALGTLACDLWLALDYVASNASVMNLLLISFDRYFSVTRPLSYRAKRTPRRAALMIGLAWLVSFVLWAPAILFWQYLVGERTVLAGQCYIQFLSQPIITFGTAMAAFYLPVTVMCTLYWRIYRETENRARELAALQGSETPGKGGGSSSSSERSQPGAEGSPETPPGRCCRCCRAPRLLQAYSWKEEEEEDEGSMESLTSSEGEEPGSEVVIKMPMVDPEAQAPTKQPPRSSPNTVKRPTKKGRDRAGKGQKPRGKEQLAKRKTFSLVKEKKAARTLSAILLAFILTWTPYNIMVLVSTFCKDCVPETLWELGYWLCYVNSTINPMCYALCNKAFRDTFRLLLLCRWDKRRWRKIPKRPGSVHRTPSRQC
Description: as §1, §2

T1 sequence (P20309 whole entry): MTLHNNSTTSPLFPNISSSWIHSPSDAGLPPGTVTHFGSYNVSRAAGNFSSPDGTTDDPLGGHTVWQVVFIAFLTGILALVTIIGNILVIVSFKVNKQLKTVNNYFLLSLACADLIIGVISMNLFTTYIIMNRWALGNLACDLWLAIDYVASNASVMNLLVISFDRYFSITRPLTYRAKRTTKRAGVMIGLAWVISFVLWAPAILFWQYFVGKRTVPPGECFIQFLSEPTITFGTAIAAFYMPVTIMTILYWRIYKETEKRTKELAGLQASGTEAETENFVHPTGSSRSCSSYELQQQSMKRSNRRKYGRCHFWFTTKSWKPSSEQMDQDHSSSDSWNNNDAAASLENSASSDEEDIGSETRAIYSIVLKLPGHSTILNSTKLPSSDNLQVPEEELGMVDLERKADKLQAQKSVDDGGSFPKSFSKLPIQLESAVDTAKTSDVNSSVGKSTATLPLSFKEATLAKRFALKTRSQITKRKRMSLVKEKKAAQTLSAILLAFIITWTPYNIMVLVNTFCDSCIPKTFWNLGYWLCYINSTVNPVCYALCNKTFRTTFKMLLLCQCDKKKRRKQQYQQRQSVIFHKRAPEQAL

SMILES	EC50 [1] [nM]	Emax [1] [%]	EC50 [2] [nM]	Emax [2] [%]	EC50 [3] [nM]	Emax [3] [%]	EC50 [4] [nM]	Emax [4] [%]
CCOC(=O)N1CCCC(N2CCC(C(=O)NC(C)(C)C)CC2)CC1 (stereo not shown) [Example 7, ethyl 4-(4-((1,1-dimethylethyl)carbamoyl)piperidin-1-yl)azepane-1-carboxylate]	> 20000	14	> 20000	2	191	80	81.3	111
CCOC(=O)N1CCCC(N2CCC(F)(C(=O)NC3(C)CCC3)CC2)CC1 (stereo not shown) [Example 50, ethyl 4-(4-fluoro-4-((1-methylcyclobutyl)carbamoyl)piperidin-1-yl)azepane-1-carboxylate]	> 20000	2	> 20000	17	603	90	19.5	102
CCOC(=O)N1CCCC(N2CCC(OC)(C(=O)NC3(C)CCC3)CC2)CC1 (stereo not shown) [Example 79, ethyl 4-{4-methoxy-4-[(1-methylcyclobutyl)carbamoyl]piperidin-1-yl}azepane-1-carboxylate]	> 20000	27	> 20000	7	871	27	97.7	113
CCOC(=O)N1CCCC(N2CCC(C(=O)NCC(C)CC)CC2)CC1 (stereo not shown) [Example 8, ethyl 4-(4-((2-methylbutyl)carbamoyl)piperidin-1-yl)azepane-1-carboxylate]	> 20000	2	> 20000	3	1660	55	151	93
CCOC(=O)N1CCCC(N2CCC(C(=O)NC3(C(F)(F)F)CCC3)CC2)CC1 (stereo not shown) [Example 70]	> 20000	3	> 20000	5	794	55	269	107
[2H]C([2H])([2H])C([2H])(C([2H])([2H])[2H])C([2H])([2H])NC(=O)C1CCN(C2CCCN(C(=O)OCC)CC2)CC1 (stereo not shown) [Example 75, ethyl 4-(4-{[2-(^2H3)methyl(^2H6)propyl]carbamoyl}piperidin-1-yl)azepane-1-carboxylate]	> 20000	13	> 20000	14	794	87	87.1	102
C#CCOC(=O)N1CCCC(N2CCC(C(=O)NCC(C)C)CC2)CC1 (stereo not shown) [Example 57, prop-2-yn-1-yl-4-(4-((2-methylpropyl)carbamoyl)piperidin-1-yl)azepane-1-carboxylate]	> 20000	8	> 20000	5	417	82	93.3	93
CCOC(=O)N1CCCC(N2CCC(C(=O)NCC3CCC3)CC2)CC1 (stereo not shown) [Example 11, ethyl 4-(4-((cyclobutylmethyl)carbamoyl)piperidin-1-yl)azepane-1-carboxylate]	> 20000	11	> 20000	7	427	67	60.3	117
